{"source": "patent US7238469B2", "about": "“Carbon monoxide improves outcomes in tissue and organ transplants and suppresses apoptosis” (priority 2001, dated 2007)", "key": {"VASP": {"test_system": "VASP", "assay": "VASP phosphorylation by Western blot in ECs", "format": "cell-based", "procedure": "Cell extracts were prepared, electrophoresed under denaturing conditions (10–12.5% polyacrylamide gels), and transferred into polyvinyldifluoridine membranes (Immobilon P™; Millipore). HO-1 was detected using a rabbit anti-human HO-1 polyclonal antibody (StressGen Biotechnologies). Vasodilatator-stimulated phosphoprotein (VASP) was detected using a rabbit anti-human VASP polyclonal antibody (Calbiochem-Novabiochem). […] Primary antibodies were detected using horseradish peroxidase-conjugated donkey anti-rabbit or goat anti-mouse IgG secondary antibodies (Pierce Chemical Co.). Peroxidase was visualized using the enhanced chemiluminescence assay (Amersham Pharmacia Biotech) according to the manufacturer's instructions, and stored in the form of photoradiographs (Biomax™ MS; Eastman Kodak Co.). […] The amount of phosphorylated ERK, JNK, and p38 MAPK was quantified using ImageQuant® software (Molecular Dynamics). […] Phosphorylated ERK, JNK, and p38 MAPK were normalized to the total amount of total ERK, JNK, and p38 MAPK detected in the same membrane.\nMost biological functions attributed to CO have been linked to its ability to bind guanylcyclase and increase the generation of cGMP. […] (B) Activation of guanylcyclase was monitored in BAECs by analyzing the phosphorylation of VASP. […] (D) Phosphorylation of VASP was analyzed by Western blot as described above in B. N.T., nontreated. […]"}, "[1]": {"test_system": "Brown Norway aortas transplanted into Lewis rats", "assay": "Aortic transplant model (transplant-associated arteriosclerosis)", "format": "in vivo, rat", "settings": "allogeneic recipients exposed to CO 250 ppm for 56 days", "procedure": "Aortic transplantation was carried out done as described elsewhere (Plissonnier et al., Transplantation 60:414–424, 1995). […] After additional left thoracotomy, three or four pairs of the inter-costal arteries were ligated using 7-0 nylon suture (Keisei Medical Industrial Co., LTD, Tokyo, Japan), and 2 cm of the descending aorta was harvested. The graft was inserted between the renal arteries and the aortic bifurcation by standard microsurgery technique using 9-0 Nylon sutures (Ethilon™, Ethicon, Inc, Somerville, N.J.). The native abdominal aorta was left after both edges were ligated.\nCO at a concentration of 1% (10,000 parts per million; ppm) in compressed air was mixed with balanced air (21% oxygen) as described previously (Otterbein et al., Am J Physiol 276(4 Pt 1):L688–L694, 1999). For the transplant model, graft donors were placed in the CO chamber two days before transplantation. Recipients were placed in the chamber immediately following transplantation and kept there 56 days. CO concentration was maintained at 250 ppm at all times.\nAdult male (250–350 g) Brown Norway rats (RT1 were used as aortic graft donors and adult male (250–350 g) Lewis rats (RT1) as recipients (Charles River Lab. Wilmington, Mass.). Male C57BL/6, p21^−/− and p53^−/− null mice were purchased from Jackson Laboratory (Bar Harbor, Me.). The MKK3^(−/−) null mice were generated as previously described (Lu et al., EMBO. J. 18:1845–1857, 1999). Mice were allowed to acclimate for one week with rodent chow and water ad libitum.\nBrown Norway aortas were transplanted into Brown Norway rats (syngeneic), untreated Lewis rats (allogeneic), or Lewis rats exposed to carbon monoxide (250 ppm; allogeneic with carbon monoxide). Samples were harvested 56 days after transplantation and stained by a modified elastic tissue-masson trichrome, or by eosin hematoxylin. Brown Norway aortic segments transplanted into Lewis rats developed arteriosclerotic lesions that are consistent with those associated with chronic graft rejection (data not shown). […]"}, "p38 MAPK": {"target": "T1, p38 MAPK (Bos taurus, UniProt A6QLR9)", "T1 construct": "endogenous in cells; host or cells: bovine aortic endothelial cells (BAEC)", "T1 sequence (A6QLR9 1-360)": "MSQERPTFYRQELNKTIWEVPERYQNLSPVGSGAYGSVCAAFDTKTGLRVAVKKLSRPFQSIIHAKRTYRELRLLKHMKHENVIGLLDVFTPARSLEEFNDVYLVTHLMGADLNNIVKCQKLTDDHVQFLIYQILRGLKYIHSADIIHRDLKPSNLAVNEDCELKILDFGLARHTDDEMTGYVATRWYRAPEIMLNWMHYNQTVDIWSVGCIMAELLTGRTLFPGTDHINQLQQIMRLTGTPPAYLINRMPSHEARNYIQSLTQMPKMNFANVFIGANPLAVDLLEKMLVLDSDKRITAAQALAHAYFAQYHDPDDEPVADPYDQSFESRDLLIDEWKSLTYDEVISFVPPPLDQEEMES", "format": "cell-based, bovine", "settings": "BAECs; CO 10,000 ppm"}, "[2]": {"test_system": "rat platelets overlaid on mouse 2F–2B endothelial cells", "assay": "Platelet aggregation assay, platelets overlaid on pretreated endothelial cells", "format": "cell-based", "settings": "endothelial cells pretreated with protoporphyrin 50 μM; ADP 2 μM", "procedure": "Mouse 2F–2B endothelial cells were cultured on 0.2% gelatin (Sigma) coated six-well plates in 88% DMEM (Life Technologies), 10% FCS (FCS), 100 U/ml penicillin, and 100 îg/ml streptomycin (Life Technologies). Confluent endothelial cells either were left untreated or were treated with the HO-inducing agent CoPPIX (50 îM; 18 h), the HO inhibitor SnPPIX (50 îM, 18 h), or both CoPPIX (50 îM, 15 h) and SnPPIX (50 îM, 3 h). Platelet-rich plasma was obtained by centrifugation (290-g, 12 min, 19° C.) of normal rat […] in 3.8% sodium citrate. Rat platelets (3–10^8 cells ml) were resuspended in HT buffer (8.9 mM NaHCO3, 0.8 mM KH2PO, 5.6 mM dextrose, 2.8 mM KCl solution, 0.8 mM MgCl2, 129 mM NaCl, 10 mM HEPES). Platelets were overlaid (5 min; 37° C.) on mouse endothelial cells, and platelet aggregation assays were conducted as described before (Kaczmarek et al, J. Biol. Chem. 271:33116, 1996) by using an aggregometer (Chrono-Log, Harestown, Pa.) and ADP (0.5–4 μM) as an agonist."}}}
{"smiles": "Nc1nc2c(nc(Br)n2[C@@H]2O[C@@H]3COP(=O)(O)O[C@H]3[C@H]2O)c(=O)[nH]1", "note": "[8-Br-cGMP, 8-bromoguanosine-3′-5′-cyclic-monophosphate]", "values": [{"measurement": "VASP phosphorylation", "setting": "VASP", "result": "induce VASP phosphorylation"}]}
{"smiles": "O=c1onc2cnc3ccccc3n12", "note": "[ODQ, 1H[1,2,4]oxadiazolo[4,3-α]quinoxalin-1]", "values": [{"measurement": "VASP phosphorylation", "setting": "VASP", "result": "prevent constitutive VASP phosphorylation"}]}
{"smiles": "[C-]#[O+]", "note": "[CO, carbon monoxide]", "values": [{"measurement": "accumulation of leukocytes into the adventitia", "setting": "[1]", "result": "inhibited"}, {"measurement": "intimal hyperplasia in aortic grafts", "setting": "[1]", "result": "inhibited"}, {"measurement": "loss of medial SMC", "setting": "[1]", "result": "no significant effect on loss of medial SMC"}, {"measurement": "p38 MAPK activation", "setting": "p38 MAPK", "result": "activated p38 MAPK even in the absence of TNF-α"}]}
{"smiles": "C=Cc1c2[n-]c(c1C)/C=c1\\[n-]/c(c(C)c1C=C)=C\\c1[n-]c(c(CCC(=O)O)c1C)C=c1[n-]/c(c(C)c1CCC(=O)O)=C\\2.[Sn+4]", "note": "[SnPPIX, tin protoporphyrin IX]", "values": [{"measurement": "platelet aggregation on stimulation by ADP", "setting": "[2]", "result": "platelet aggregation was enhanced"}]}
